Laboratory results published in patent US11643665B2, “Nucleotide sequences encoding Fasciated EAR3 (FEA3) and methods of use thereof” (CORTEVA AGRISCIENCE LLC, priority 2012, dated 2023).
Where no end group is shown, it is not given here.

How the values were obtained:
Format in all cases: in vivo, maize
[1] = tested on: B73 and fea3 mutant seedlings; test: Clavata3-like peptide root assay (primary root length of seedlings on agar plates); details: 5 μM or 10 μM peptide, after 7 days
Experimental: To analyze whether FEA3 responds to CLV3-like peptides, and determine if they act in a common pathway, a CLV3 peptide assay was performed. The peptides used were ZCL3 (Zea mays CLE-like 3; SEQ ID NO:32), FCP1 (SEQ ID NO:33), CLV3 (SEQ ID NO:34), CLE20 (SEQ ID NO:35), CLE40 (SEQ ID NO:36), ZCL21 ([…]; SEQ ID NO:37), and ZCL23 (Zea mays CLE-like 23; SEQ ID NO:38).
The ZCL peptides were found in maize sequences in the NCBI database by homology search using the CLV3, CLE, and rice related peptides (Fiers et al Plant Cell (2005), 17: 2542-2553; Suzaki et al (2008), Plant Cell, 20: 2049-2058).
B73 and fea3 mutant seedlings were germinated and grown on agar plates containing each 5 μM or 10 μM peptide. As a control, seedlings were also grown on plates containing a scramble of the peptide. After 7 days the length of the primary root was measured.

[2] = tested on: B73 and homozygous fea2 and fea3 mutant seedlings; test: Clavata3 peptide root assay (primary root length of seedlings on agar plates); details: agar plates containing CLV3 peptide, after 7 days
Experimental: In Arabidopsis, CLAVATA2 activity can be detected by responses of root growth to CLAVATA3 (CLV3) peptide. To analyze whether FEA3 and FEA2 respond to CLV3, and determine if they act in a common pathway a CLV3 peptide assay was performed. B73 and homozygous fea2 and fea3 mutant seedlings were germinated and grown on agar plates containing CLV3 peptide. As a control, seedlings were also grown on plates containing a mutated version of the peptide and on plates without any peptide. After 7 days the length of the primary root was measured.

[3] = tested on: Wt and fea3 embryos; test: Embryo culture assay in presence of FCP1 peptide (embryo SAM growth); details: 20 μM peptide, two weeks after planting
Experimental: Wt and fea3 embryos were cultured in the presence of 20 μM FCP1 peptide (SEQ ID NO:33) or 20 μM scrambled peptide. For measurement of embryo SAM growth, about 10 days after pollination, embryos were sterilized (whole corn was sterilized, not individual young seeds) and dissected embryos and put the embryos down on the media and the measurement of SAM size was done two weeks after planting (embryo culture).

Substance	root growth response (length of the primary root) ([1]; B73 wild type plants)	root growth response (length of the primary root) ([2]; B73 wild type plants)	root growth response (length of the primary root) ([2]; homozygous fea2 mutants)	root growth response (length of the primary root) ([2]; homozygous fea3 mutants)	root growth response (length of the primary root) ([1]; fea3 mutants)	embryo SAM growth (SAM size) ([3]; WT embryos)	embryo SAM growth (SAM size) ([3]; fea3 embryos)
CLV3: CLAVATA3 (CLV3) peptide (RTVPSGPDPLHH; ends and bridges not checked; listed as Arabidopsis thaliana)	strong root growth inhibition	strong root growth inhibition	do not respond	respond	–	–	–
ZCL3: Zea mays CLE-like 3 peptide, found in maize sequences by homology search using CLV3, CLE and rice related peptides (RPVPSGPDPIHH; Zea mays)	strong root growth inhibition	–	–	–	–	–	–
FCP1: CLV3-like peptide used for the CLV3/CLV3-like peptide assay (REVPTGPDPIHH; listed as Oryza sativa)	strong root growth inhibition	–	–	–	less sensitivity	strongly inhibited	resistance
